Reference: the supplement of paper PMC10307832

Columns and labels:
Experiment in all cases: relative viability (nuclei count vs DMSO), 5 days (fraction); higher = more cells survive
Seliciclib + Bortezomib = compound: CC[C@H](CO)Nc1nc(NCc2ccccc2)c2ncn(C(C)C)c2n1 [Seliciclib] + CC(C)C[C@H](NC(=O)[C@H](Cc1ccccc1)NC(=O)c1cnccn1)B(O)O [Bortezomib] (partner 0.002 µM)
Summary of the method: (§1)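 Relative viability equals treated-well nuclei counts divided by vehicle-well nuclei counts. Counts came from 4× images of lung cancer cell lines grown in 1536-well plates for 5 days after pin-tool dosing on the day after seeding. Dosing used one drug alone or a fixed anchor-drug dose plus five library-drug doses (not always all listed) in √10 steps, and values are medians of duplicate plates.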

Seliciclib + Pemetrexed = compound: CC[C@H](CO)Nc1nc(NCc2ccccc2)c2ncn(C(C)C)c2n1 [Seliciclib] + Nc1nc2[nH]cc(CCc3ccc(C(=O)N[C@@H](CCC(=O)O)C(=O)O)cc3)c2c(=O)[nH]1 [Pemetrexed] (partner 0.2 µM)
Summary of the method: as §1

Seliciclib + Alpelisib = compound: CC[C@H](CO)Nc1nc(NCc2ccccc2)c2ncn(C(C)C)c2n1 [Seliciclib] + Cc1nc(NC(=O)N2CCC[C@H]2C(N)=O)sc1-c1ccnc(C(C)(C)C(F)(F)F)c1 [Alpelisib] (partner 2 µM)
Summary of the method: as §1

Seliciclib + Olaparib = compound: CC[C@H](CO)Nc1nc(NCc2ccccc2)c2ncn(C(C)C)c2n1 [Seliciclib] + O=C(c1cc(Cc2n[nH]c(=O)c3ccccc23)ccc1F)N1CCN(C(=O)C2CC2)CC1 [Olaparib] (partner 8 µM)
Summary of the method: as §1

Row | Cell Line | relative viability (Seliciclib + Bortezomib; first compound 0.08 µM) | relative viability (Seliciclib + Bortezomib; first compound 0.253 µM) | relative viability (Seliciclib + Bortezomib; first compound 0.8 µM) | relative viability (Seliciclib + Bortezomib; first compound 2.53 µM) | relative viability (Seliciclib + Bortezomib; first compound 8 µM) | relative viability (Seliciclib + Pemetrexed; first compound 0.08 µM) | relative viability (Seliciclib + Pemetrexed; first compound 0.253 µM) | relative viability (Seliciclib + Pemetrexed; first compound 0.8 µM) | relative viability (Seliciclib + Pemetrexed; first compound 2.53 µM) | relative viability (Seliciclib + Pemetrexed; first compound 8 µM) | relative viability (Seliciclib + Alpelisib; first compound 0.08 µM) | relative viability (Seliciclib + Alpelisib; first compound 0.253 µM) | relative viability (Seliciclib + Alpelisib; first compound 0.8 µM) | relative viability (Seliciclib + Alpelisib; first compound 2.53 µM) | relative viability (Seliciclib + Alpelisib; first compound 8 µM) | relative viability (Seliciclib + Olaparib; first compound 0.08 µM) | relative viability (Seliciclib + Olaparib; first compound 0.253 µM) | relative viability (Seliciclib + Olaparib; first compound 0.8 µM) | relative viability (Seliciclib + Olaparib; first compound 2.53 µM) | relative viability (Seliciclib + Olaparib; first compound 8 µM)
1 | 201T | 1.12 | 1.18 | 1.07 | 1.1 | 1.01 | 0.379 | 0.357 | 0.382 | 0.27 | 0.323 | 1.01 | 1.02 | 0.997 | 0.997 | 0.966 | 0.805 | 0.834 | 0.812 | 0.882 | 0.805
2 | A549 |  |  |  |  |  |  |  |  |  |  | 0.763 | 0.67 | 0.696 | 0.656 | 0.458 | 0.3 | 0.41 | 0.251 | 0.26 | 0.361
3 | A-427 | 0.975 | 0.944 | 1.04 | 0.925 | 0.916 | 1.01 | 1.01 | 1.03 | 0.963 | 0.917 | 1.05 | 1.16 | 1.12 | 1.08 | 0.927 | 0.79 | 0.714 | 0.712 | 0.617 | 0.639
4 | ABC-1 | 0.318 | 0.312 | 0.296 | 0.274 | 0.339 |  |  |  |  |  | 0.819 | 0.888 | 0.775 | 0.964 | 0.931 | 0.864 | 0.741 | 0.615 |  | 0.782
5 | BEN | 0.871 |  | 0.82 | 0.701 | 0.659 | 0.805 | 0.676 | 0.67 | 0.611 | 0.63 | 1.13 |  | 0.844 | 1.12 | 0.862 | 0.898 | 1.01 | 1.16 | 1.01 | 0.815
6 | CAL-12T | 0.936 | 1.36 | 0.888 | 0.785 | 0.567 | 1.16 | 0.949 | 1.2 | 1.06 | 1.01 | 1.11 |  | 0.86 | 1 | 0.946 | 0.759 | 0.712 | 0.742 | 0.585 | 0.472
7 | COR-L23 | 1.01 | 1.1 | 0.962 | 1.06 | 0.751 | 0.209 | 0.192 | 0.195 | 0.198 | 0.212 | 0.708 | 0.868 | 0.764 | 0.78 | 0.538 | 0.302 | 0.451 | 0.345 | 0.364 | 0.297
8 | COR-L 105 | 0.876 | 0.961 | 0.676 | 0.535 | 0.774 | 0.98 | 1.09 | 1.21 | 1.09 | 1.01 | 0.994 | 0.808 | 1.05 | 1.04 | 0.748 | 0.656 | 0.602 | 0.7 | 0.713 | 0.733
9 | Calu-6 | 0.969 | 0.938 | 1.12 | 1.01 | 0.989 |  |  |  |  |  | 0.942 | 0.993 | 1.04 | 1.01 | 0.809 | 0.602 | 0.658 | 0.565 | 0.624 | 0.532
10 | ChaGo-K-1 | 0.914 | 0.517 | 0.947 | 0.83 | 0.454 | 0.25 | 0.253 | 0.264 | 0.251 | 0.251 |  |  |  |  |  | 0.424 | 0.464 | 0.379 | 0.425 | 0.359
11 | EBC-1 | 0.554 | 0.553 | 0.623 | 0.466 | 0.379 |  |  |  |  |  | 0.901 | 0.88 | 0.895 | 0.828 | 0.616 | 0.712 | 0.651 | 0.734 | 0.665 | 0.461
12 | EKVX | 1.03 | 1.07 | 0.985 | 0.854 | 0.861 | 0.368 | 0.37 | 0.354 | 0.379 | 0.472 | 0.844 | 0.9 | 0.799 | 0.794 | 0.674 | 0.772 | 1.08 | 0.749 | 0.682 | 0.775
13 | EMC-BAC-2 | 1.05 | 0.91 | 1.11 | 0.836 | 1.07 | 0.417 | 0.476 | 0.547 | 0.468 | 0.508 | 0.759 | 0.731 | 0.739 | 0.774 | 0.703 | 0.493 | 0.494 | 0.59 | 0.447 | 0.446
14 | EPLC-272H | 0.872 | 0.676 | 0.991 | 1.03 | 0.907 | 0.326 | 0.357 | 0.274 | 0.329 | 0.229 | 0.968 | 0.847 | 0.795 | 1.04 | 0.895 | 0.919 | 0.729 | 0.667 | 0.791 | 0.441
15 | H3255 | 0.833 | 0.828 | 0.753 | 0.605 | 0.625 | 0.555 | 0.624 | 0.639 | 0.471 | 0.534 | 0.608 | 0.667 | 0.721 | 0.806 | 0.587 | 0.545 | 0.575 | 0.552 | 0.518 | 0.518
16 | HARA | 1.09 | 1.27 | 1.04 | 1.25 | 1.03 | 0.238 | 0.28 | 0.244 | 0.227 | 0.21 | 0.892 | 0.911 | 0.747 | 0.855 | 0.776 | 1.05 | 0.66 | 0.784 | 0.909 | 0.924
17 | HCC-15 | 1.05 | 1.1 | 0.898 | 0.966 | 0.826 | 0.221 | 0.223 | 0.219 | 0.218 | 0.226 | 0.956 | 0.954 | 0.846 | 0.902 | 0.712 | 0.707 | 0.792 | 0.72 | 0.796 | 0.669
18 | HCC-44 | 0.841 | 0.885 | 0.82 | 0.758 | 0.881 | 0.631 | 0.676 | 0.684 | 0.617 | 0.645 | 0.845 | 0.834 | 0.798 | 0.74 | 0.707 | 0.978 | 1.03 | 1.01 | 0.966 | 0.973
